Test results as given in article PMC3029338, “Highly Selective End-Tagged Antimicrobial Peptides Derived from PRELP” (PLoS ONE, 2011).
Ends that are not written are not given here.

How the values were obtained:
[1] = test system: human erythrocytes in 50% citrate blood with S. aureus or P. aeruginosa; conditions: peptide 120 µM (highest dose), 1 hour 37°C, in words
Method: For analysis of peptide-induced permeabilization of human erythroytes, EDTA-, or citrate-blood was drawn from healthy volunteers, [51], centrifuged at 800 g for 10 min, and plasma and buffy coat were removed. For experiments using EDTA-blood, [51] erythrocytes were washed three times and resuspended to 5% in PBS, pH 7.4. For experiments in 50% blood, citrate-blood was diluted (1∶1) with PBS. The cells were then incubated with end-over-end rotation for 1 h at 37°C in the presence of peptides (60 µM). 2% Triton X-100 (Sigma-Aldrich, St. Louis, USA) served as positive control. The samples were then centrifuged at 800 g for 10 min. The absorbance of hemoglobin release was measured at 540 nm and is expressed as % of TritonX-100 induced hemolysis. In the experiments with blood infected by bacteria, citrate-blood was diluted (1∶1) with PBS. The cells were then incubated with end-over-end rotation for 1 h at 37°C in the presence of peptides (60 and 120 µM) and S. aureus (2×10^8 cfu/ml) or P. aeruginosa (2×10^8 cfu/ml) bacteria. For evaluation of hemolysis, samples were then processed as above. Results given represent mean values from triplicate measurements.

S. aureus V8 proteinase = molecular target: T1, S. aureus V8 proteinase (Staphylococcus aureus, UniProt P0C1U8); assay: Protease sensitivity assay (SDS-PAGE); format: in vitro ADME; conditions: 1 µg peptide, 0.1 µg enzyme, 30 µl, 37°C, 3 hours (legend: 4 h), SDS-PAGE Coomassie; in words
T1 construct: purchased BioCol GmbH (Potsdam, Germany)
Method: (§1) For evaluation of sensitivity to bacterial and endogenous proteases, peptides (1 µg) were incubated at 37°C with S. aureus aureolysin (0.1 µg, 25000 units/mg), S. aureus V8 proteinase (0.1 µg, 2000 mU), both from BioCol GmbH (Potsdam, Germany), human neutrophil elastase (0.4 µg, 29 units/mg; Calbiochem (La Jolla, USA)) or P. aeruginosa elastase (0.1 µg, 261 units/mg) (Calbiochem, La Jolla, USA) in a total volume of 30 µl for 3 hours. The materials were analyzed on 16.5% precast sodium dodecyl sulfate polyacrylamide (SDS-PAGE) Tris-Tricine gels (BioRad, Hercules, USA) and analyzed after staining with Coomassie Blue R-250 (Merck, Darmstadt, Germany).

[2] = molecular target: T2, human neutrophil elastase (Homo sapiens, UniProt P08246); assay: Protease sensitivity assay (SDS-PAGE); format: in vitro ADME; conditions: 1 µg peptide, 0.4 µg enzyme, 30 µl, 37°C, 3 hours (legend: 4 h), SDS-PAGE Coomassie; in words
T2 construct: purchased Calbiochem (La Jolla, USA)
Method: as §1

S. aureus aureolysin = molecular target: T3, S. aureus aureolysin (Staphylococcus aureus, UniProt P81177); assay: Protease sensitivity assay (SDS-PAGE); format: in vitro ADME; conditions: 1 µg peptide, 0.1 µg enzyme, 30 µl, 37°C, 3 hours (legend: 4 h), SDS-PAGE Coomassie; in words
T3 construct: purchased BioCol GmbH (Potsdam, Germany)
Method: as §1

P. aeruginosa elastase = molecular target: T4, P. aeruginosa elastase (Pseudomonas aeruginosa, UniProt P14756); format: in vitro ADME; conditions: 37°C, in words; for stability against P. aeruginosa elastase: 1 µg peptide, 0.1 µg enzyme, 30 µl, 3 hours (legend: 4 h), SDS-PAGE Coomassie; for stability against P. aeruginosa elastase, extended digestion: different times up to 18 h, SDS-PAGE
T4 construct: purchased Calbiochem (La Jolla, USA)
Method: […] The materials were analyzed on 16.5% precast sodium dodecyl sulfate polyacrylamide (SDS-PAGE) Tris-Tricine gels (BioRad, Hercules, USA) and analyzed after staining with Coomassie Blue R-250 (Merck, Darmstadt, Germany).

erythrocytes = conditions: cited from earlier work
Description: (§2) Considering the increasing resistance problems against conventional antibiotics, AMPs have recently emerged as potential therapeutic candidates in the above conditions. For example, the indolicidin-derived peptide omiganan is currently being evaluated in Phase III clinical trials for treatment of catheter-related infections. However, the use of AMPs in this context is challenging, as bacteria are able to excrete proteolytic enzymes, [38], and in the case of P. aeruginosa also AMP-scavenging exopolysaccharides, as a defense against AMPs.

P. aeruginosa = conditions: in words; cited from earlier work
Description: as §2

S. aureus = conditions: in words; cited from earlier work
Description: as §2

[3] = test system: Group C Streptococcus – macrolide-resistant clinical isolate; format: cell-based
Method: (§3) In order to determine the minimal inhibitory concentration (MIC) for a given peptide and bacteria, we used a standardized dilution method according to NCSLA guidelines. In brief, fresh overnight colonies were suspended to a turbidity of 0.5 units and further diluted in Mueller-Hinton broth (MH) (Becton Dickinson). For determination of MIC, peptides were dissolved in water at concentration 10 times higher than the required range by serial dilutions from a stock solution. Ten µl of each concentration was added to each corresponding well of a 96-well microtiter plate (polypropylene, Costar Corp.) and 90 µl of bacteria (1×10^5) in MH medium added. The plate was incubated at 37°C for 16–18 h. MIC was considered as the lowest concentration of peptide where no visual growth of bacteria was detected. Additional MIC determinations presented in Table 2 were performed using cation-adjusted MH broth at Quotient Bioresearch Ltd., Fordham, United Kingdom.

[4] = test system: Streptococcus pyogenes – Macrolide (M-type) resistance clinical isolate; format: cell-based
Method: as §3

[5] = test system: Group G Streptococcus – macrolide-resistant clinical isolate; format: cell-based
Method: as §3

[6] = test system: Staphylococcus haemolyticus – antibiotic susceptible clinical isolate; format: cell-based
Method: as §3

[7] = test system: Escherichia coli - ESBL - TEM; format: cell-based
Method: as §3

[8] = test system: Escherichia coli ATCC 25922 - antibiotic-susceptible type strain; format: cell-based
Method: as §3

[9] = test system: Streptococcus pyogenes – ATCC 19615; format: cell-based
Method: as §3

[10] = test system: Escherichia coli - multi-drug resistant clinical isolate; format: cell-based
Method: as §3

[11] = test system: Staphylococcus aureus ATCC 29213 – antibiotic-susceptible type strain; format: cell-based
Method: as §3

[12] = test system: EMRSA15 Staphylococcus aureus (MRSA) – SSCmec type 4; format: cell-based; conditions: EMRSA15 – SSCmec type 4
Method: as §3

[13] = test system: Streptococcus pyogenes – antibiotic-susceptible clinical isolate; format: cell-based
Method: as §3

[14] = test system: Staphylococcus saprophyticus – antibiotic susceptible clinical isolate; format: cell-based
Method: as §3

[15] = test system: Group G Streptococcus – antibiotic-susceptible clinical isolate; format: cell-based
Method: as §3

[16] = test system: EMRSA1 Staphylococcus aureus (MRSA) – SSCmec type 3; format: cell-based; conditions: EMRSA1 – SSCmec type 3
Method: as §3

[17] = test system: Staphylococcus epidermidis– methicillin-resistant clinical isolate; format: cell-based
Method: as §3

[18] = test system: Pseudomonas aeruginosa ATCC 27853 - antibiotic-susceptible type strain; format: cell-based
Method: as §3

[19] = test system: Escherichia coli ATCC 35218 - β-lactamase positive type strain; format: cell-based
Method: as §3

[20] = test system: MU50 Staphylococcus aureus (MRSA) – VISA type strain; format: cell-based
Method: as §3

[21] = test system: Staphylococcus aureus ATCC 43300 – methicillin-resistant type strain; format: cell-based
Method: as §3

[22] = test system: Streptococcus pyogenes – Macrolide (MLS) resistant clinical isolate; format: cell-based
Method: as §3

[23] = test system: Staphylococcus aureus - teicoplanin-intermediate clinical isolate; format: cell-based
Method: as §3

[24] = test system: Escherichia coli - ESBL - SHV; format: cell-based
Method: as §3

[25] = test system: Staphylococcus aureus – methicillin-resistant clinical isolate; format: cell-based
Method: as §3

[26] = test system: HT2001254 Staphylococcus aureus (MRSA) – PVL positive; format: cell-based
Method: as §3

[27] = test system: Escherichia coli - ESBL - CTXM; format: cell-based
Method: as §3

[28] = test system: EMRSA16 Staphylococcus aureus (MRSA) – SSCmec type 2; format: cell-based; conditions: EMRSA16 – SSCmec type 2
Method: as §3

[29] = test system: Pseudomonas aeruginosa - multi-drug resistant clinical isolate; format: cell-based
Method: as §3

[30] = test system: EMRSA3 Staphylococcus aureus (MRSA) – SSCmec type 1; format: cell-based; conditions: EMRSA3 – SSCmec type 1
Method: as §3

[31] = test system: Staphylococcus epidermidis – antibiotic susceptible clinical isolate; format: cell-based
Method: as §3

[32] = test system: Staphylococcus aureus - multi-drug-resistant clinical isolate; format: cell-based
Method: as §3

[33] = test system: Pseudomonas aeruginosa – Liverpool genotype LES 431; format: cell-based
Method: as §3

[34] = test system: Group C Streptococcus – antibiotic-susceptible clinical isolate; format: cell-based
Method: as §3

T1 sequence (P0C1U8 69-336): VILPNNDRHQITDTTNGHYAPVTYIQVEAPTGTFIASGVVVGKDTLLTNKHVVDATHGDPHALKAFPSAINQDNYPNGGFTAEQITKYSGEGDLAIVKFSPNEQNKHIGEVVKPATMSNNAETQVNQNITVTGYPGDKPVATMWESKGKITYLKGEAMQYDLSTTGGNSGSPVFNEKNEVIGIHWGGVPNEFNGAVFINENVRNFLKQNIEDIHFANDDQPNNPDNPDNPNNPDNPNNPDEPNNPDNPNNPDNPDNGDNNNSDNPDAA
T3 sequence (P81177 209-509): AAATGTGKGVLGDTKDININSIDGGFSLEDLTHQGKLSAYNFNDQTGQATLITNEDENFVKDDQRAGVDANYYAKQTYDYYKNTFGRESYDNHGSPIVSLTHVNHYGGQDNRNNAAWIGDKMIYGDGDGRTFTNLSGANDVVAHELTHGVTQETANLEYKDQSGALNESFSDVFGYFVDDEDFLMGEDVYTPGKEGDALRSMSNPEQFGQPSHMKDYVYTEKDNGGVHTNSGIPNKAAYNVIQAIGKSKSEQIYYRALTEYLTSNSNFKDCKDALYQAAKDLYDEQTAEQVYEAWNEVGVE
T4 sequence (P14756 198-498): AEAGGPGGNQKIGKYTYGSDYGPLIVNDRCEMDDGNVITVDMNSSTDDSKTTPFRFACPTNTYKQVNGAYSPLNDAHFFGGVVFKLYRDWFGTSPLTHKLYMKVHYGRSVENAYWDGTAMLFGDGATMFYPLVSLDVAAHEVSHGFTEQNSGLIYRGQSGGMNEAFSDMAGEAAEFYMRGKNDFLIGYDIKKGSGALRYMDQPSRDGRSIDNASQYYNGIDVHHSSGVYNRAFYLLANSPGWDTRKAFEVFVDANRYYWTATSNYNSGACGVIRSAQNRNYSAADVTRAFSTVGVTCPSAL
T2 sequence (P08246 30-267): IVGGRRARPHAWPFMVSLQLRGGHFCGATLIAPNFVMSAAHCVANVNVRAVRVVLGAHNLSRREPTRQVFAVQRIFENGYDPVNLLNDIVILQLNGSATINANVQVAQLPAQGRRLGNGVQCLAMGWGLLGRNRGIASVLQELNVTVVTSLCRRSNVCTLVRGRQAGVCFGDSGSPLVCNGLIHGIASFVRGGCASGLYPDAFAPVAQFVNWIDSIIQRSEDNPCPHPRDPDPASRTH

CC[C@H](C)[C@H](NC(=O)[C@H](CCCCN)NC(=O)[C@H](CCC(=O)O)NC(=O)[C@H](CCCCN)NC(=O)[C@H](CO)NC(=O)[C@H](CCCCN)NC(=O)[C@H](CCCNC(=N)N)NC(=O)[C@H](Cc1ccccc1)NC(=O)[C@H](Cc1ccccc1)NC(=O)[C@H](CC(=O)O)NC(=O)CNC(=O)[C@H](CC(C)C)NC(=O)[C@@H](N)CC(C)C)C(=O)NCC(=O)N[C@@H](CCCCN)C(=O)N[C@@H](CCC(=O)O)C(=O)N[C@@H](Cc1ccccc1)C(=O)N[C@@H](CCCCN)C(=O)N[C@@H](CCCNC(=N)N)C(=O)N[C@H](C(=O)N[C@H](C(=O)N[C@@H](CCC(N)=O)C(=O)N[C@@H](CCCNC(=N)N)C(=O)N[C@H](C(=O)N[C@@H](CCCCN)C(=O)N[C@@H](CC(=O)O)C(=O)N[C@@H](Cc1ccccc1)C(=O)N[C@@H](CC(C)C)C(=O)N[C@@H](CCCNC(=N)N)C(=O)N[C@@H](CC(N)=O)C(=O)N[C@@H](CC(C)C)C(=O)N[C@H](C(=O)N1CCC[C@H]1C(=O)N[C@@H](CCCNC(=N)N)C(=O)N[C@H](C(=O)N[C@@H](CCC(=O)O)C(=O)N[C@@H](CO)C(=O)O)[C@@H](C)O)C(C)C)[C@@H](C)CC)C(C)C)[C@@H](C)CC [reference compound]
significant concomitant hemolysis: hemolysis in human blood infected by bacteria [1]
extensively degraded: stability against S. aureus V8 proteinase (S. aureus V8 proteinase) | stability against human neutrophil elastase [2] | stability against S. aureus aureolysin (S. aureus aureolysin) | stability against P. aeruginosa elastase (P. aeruginosa elastase)

GRRPRPRPRPWWWW-NH2 [GRRPRPRPRPWWWW-NH2]
largely unaffected: stability against S. aureus V8 proteinase (S. aureus V8 proteinase) | stability against S. aureus aureolysin (S. aureus aureolysin) | stability against P. aeruginosa elastase (P. aeruginosa elastase)

ILRWPWWPWRRK-NH2 [ILRWPWWPWRRK-NH2, reference compound]
degraded during extended digestion: stability against P. aeruginosa elastase, extended digestion (P. aeruginosa elastase)

QPTRRPRPGTGPGRRPRPRPRP [QPT22, PRELP-derived peptide of earlier work]
no hemolytic activity: hemolytic activity (erythrocytes)
exert antimicrobial effects: antimicrobial effects (P. aeruginosa) | antimicrobial effects (S. aureus)

RRPRPRPRPWWWW-NH2 [RRPRPRPRPWWWW-NH2]
no accompanying hemolysis: hemolysis in human blood infected by bacteria [1]
128 µg/mL: MIC [29] | MIC [33]
16 µg/mL: MIC [4] | MIC [5] | MIC [7] | MIC [8] | MIC [9] | MIC [10] | MIC [11] | MIC [12] | MIC [19] | MIC [21] | MIC [22] | MIC [27] | MIC [30]
32 µg/mL: MIC [13] | MIC [15] | MIC [16] | MIC [20] | MIC [23] | MIC [24] | MIC [25] | MIC [26] | MIC [28] | MIC [32]
8 µg/mL: MIC [3] | MIC [6] | MIC [17] | MIC [31] | MIC [34]
largely unaffected: stability against S. aureus V8 proteinase (S. aureus V8 proteinase) | stability against S. aureus aureolysin (S. aureus aureolysin) | stability against P. aeruginosa elastase (P. aeruginosa elastase)
64 µg/mL: MIC [14] | MIC [18]
maintained stability: stability against P. aeruginosa elastase, extended digestion (P. aeruginosa elastase)
